Here are results for 1 substance from patent US11273217B2, “Cancer treatment composition combining anti-CD26 antibody and other anticancer agent” (Y's AC Co., Ltd., priority 2015, dated 2022).

The subject of one test is H226. Put plainly: In vivo growth of epithelioid mesothelioma cell H226 in SCID mice (tumor weight). The conditions noted are these: YS110 10 mg/kg, gemcitabine 20 mg/kg, intraperitoneal, days 2 and 4; day 7. The method, then: H226 (3.8×10^5 cells/animal) was subcutaneously transplanted to the backs of female SCID mice. The day of transplantation was defined as day 0. YS110 (10 mg/kg), gemcitabine (20 mg/kg), or YS110 (10 mg/kg)+gemcitabine (20 mg/kg) was intraperitoneally administered to the mice twice (days 2 and 4) (n=6). At day 7, their tumors were excised, and the tumor weights were measured. Significant difference was tested by two-tailed t-test (vs Cont). The interaction between YS110 and gemcitabine used concomitantly was analyzed by two-way ANOVA.

A further test relates to HCC827 cells. Put plainly: In vivo growth of CD26-positive lung cancer cell line HCC827 in SCID mice (tumor weight). The following applies: days 1 and 4, day 7. As for the experimental part: HCC827 cells (1.8×10^5 cells/animal) were subcutaneously transplanted to the backs of female SCID mice. The day of transplantation was defined as day 0. At day 1, YS110 (10 mg/kg) alone, cisplatin (0.5 mg/kg)+pemetrexed (50 mg/kg), or YS110 (10 mg/kg)+cisplatin (0.5 mg/kg)+pemetrexed (50 mg/kg) was intraperitoneally administered to the mice. At day 4, the same amount of the same drug was administered by the same method as in day 1 (n=6). At day 7, their tumors were excised, and the tumor weights were measured. Significant difference was tested by two-tailed t-test (vs Cont).
HCC827 cells (0.9×10^5 cells/animal) were subcutaneously transplanted to the backs of female SCID mice. The day of transplantation was defined as day 0. YS110 (10 mg/kg, intraperitoneal administration), gefitinib (100 mg/kg, oral administration), or YS110 (10 mg/kg, intraperitoneal administration)+gefitinib (100 mg/kg, oral administration) was administered to the mice twice (days 1 and 4). At day 7, their tumors were excised, and the tumor weights were measured. Significant difference was tested by two-tailed t-test (vs Cont).

The next test has as its system HCC4006 cells. In words: In vivo growth of CD26-positive lung cancer cell line HCC4006 in SCID mice (tumor weight). The following applies: YS110 10 mg/kg intraperitoneal, gefitinib 100 mg/kg oral, days 1 and 4; day 7.
In a further test the test system is H2452 cells. Put plainly: Boyden chamber invasion assay, H2452. In kind it is cell-based. The following applies: cisplatin 0, 3, or 10 μM and YS110 0, 10, or 20 μg/ml; 24 hours. As for the experimental part:
(§1) MESO1 cells or H2452 cells (2.5×10^4 cells/well) were inoculated to a Boyden chamber. One hour later, cisplatin (5, 10, or 30 μM) or pemetrexed (1, 10, or 30 μM) was added thereto (n=5), followed by Boyden chamber invasion assay. 24 hours after the cell inoculation, invasive cells were stained with Diff-Quik-staining kit. Significant difference was tested by two-tailed t-test (vs Cont).
(§2) MESO1 cells or H2452 cells (2.5×10^4 cells/well) were inoculated to a Boyden chamber. One hour later, the combination of cisplatin (0, 3, or 10 μM) and pemetrexed (0, 10, or 30 μM) was added thereto (n=5), followed by Boyden chamber invasion assay. 24 hours after the cell inoculation, invasive cells were stained with Diff-Quik-staining kit. Significant difference was tested by two-tailed t-test (vs Cont).
H2452 cells (2.5×10^4 cells/well) were inoculated to a Boyden chamber. One hour later, the combination of cisplatin (0, 3, or 10 μM) and YS110 (0, 10, or 20 μg/ml) was added thereto (n=5), followed by Boyden chamber invasion assay. 24 hours after the cell inoculation, invasive cells were stained with Diff-Quik-staining kit. Significant difference was tested by two-tailed t-test (vs Cont). Next, the interaction of YS110 with cisplatin-pemetrexed concomitant use was studied. The interaction was analyzed by two-way ANOVA.

For another test, the system named is H226 cells. In words: MTT cell growth assay, H226. The conditions noted are these: gemcitabine 10^−8, 3×10^−8, or 10^−7 M and YS110 1, 3, or 10 μg/ml; day 2. In kind it is cell-based. As for the experimental part:
Gemcitabine was studied for its effect on the growth of a mesothelioma cell line. A mesothelioma cell line MESO1, JMN, H2452, or H226 (2×10^3 cells/well) was inoculated to a 96-well plate. One hour later, gemcitabine (10^−9, 10^−8, 10^−7, 10^−6, 10^−5, or 10^−4 M) was added thereto (N=6). 2 days later, MTT assay was conducted. Significant difference was tested by two-tailed t-test (vs Cont).
H226 cells (2×10^3 cells/well) were inoculated to a 96-well plate. One hour later, gemcitabine (0, 10^−8, 3×10^−8, or 10^−7 M) and YS110 (0, 1, 3, or 10 μg/ml) were added thereto in combination. At day 2, MTT assay was conducted. Significant difference was tested by two-tailed t-test (vs Cont). Next, interaction in concomitant use of medications was studied (n=6). The interaction between YS110 and gemcitabine used concomitantly was analyzed by two-way ANOVA.
MESO1, JMN, H2452 or H226 cells (2×10^3 cells/well were inoculated to a 96-well plate. One hour later, 3×10^−8 M or 10^−7 M gemcitabine was added thereto by concomitant use with the combination of cisplatin (0, 0.1, 0.3, or 1 μM) and pemetrexed (0, 0.03, 0.1, or 0.3 μM) (n=6). At day 2, MTT assay was conducted.
The growth inhibitory effect of gemcitabine (10^−9 to 10^−4 M) was compared using MESO1, H2452, JMN, and H226 cell lines.

For the next test, the system named is MESO1 cells. In words: Boyden chamber invasion assay, MESO1. It is filed as cell-based. The following applies: cisplatin 0, 3, or 10 μM and YS110 0, 10, or 20 μg/ml; 24 hours. As for the experimental part: as §1, §2
MESO1 cells (2.5×10^4 cells/well) were inoculated to a Boyden chamber. One hour later, the combination of cisplatin (0, 3, or 10 μM) and YS110 (0, 10, or 20 μg/ml) was added thereto (n=5), followed by Boyden chamber invasion assay. 24 hours after the cell inoculation, invasive cells were stained with Diff-Quik-staining kit. Significant difference was tested by two-tailed t-test (vs Cont). Next, the interaction of YS110 with cisplatin-pemetrexed concomitant use was studied. The interaction was analyzed by two-way ANOVA.

In a further test the test system is JMN cells. In words: In vivo JMN cell growth in SCID mice (tumor weight). The following applies: YS110 10 mg/kg, intraperitoneal.

“YS110: humanized anti-CD26 antibody designed based on anti-CD26 mouse antibody 14D10; SEQ ID NO: 17 and 18”: the “inhibitory effect (tumor weight)” value was 34% with H226; 34% in the test on JMN cells (gemcitabine 10 mg/kg, days 2 and 4, day 7). The “effect of YS110 on the effect of gefitinib (tumor weight)” value is given as “potentiated” with HCC827 cells (YS110 10 mg/kg intraperitoneal, gefitinib 100 mg/kg oral) and “potentiated” in the test on HCC4006 cells. For the same substance, the “effect of YS110 on the effect of cisplatin-pemetrexed (tumor weight)” value with HCC827 cells (YS110 10 mg/kg, cisplatin 0.5 mg/kg, pemetrexed 50 mg/kg, intraperitoneal) is reported as “potentiated”. For the same substance, the “effect of YS110 on the cell invasion inhibitory action of cisplatin-pemetrexed” value in the test with H2452 cells is recorded as “synergistically potentiated”; in the test with MESO1 cells it was “potentiated”. The “effect of YS110 on the growth inhibitory effect of gemcitabine” value with H226 cells is “potentiated”. In the test with JMN cells (cisplatin 0.5 mg/kg, days 1 and 4, tumor weight day 7), the “effect of YS110 on the in vivo tumor growth inhibitory effect of cisplatin” value is on record as “potentiated”. The “effect of YS110 on the in vivo tumor growth inhibitory effect of cisplatin-pemetrexed” value in the test with JMN cells (cisplatin 0.5 mg/kg, pemetrexed 50 mg/kg, days 1 and 4, tumor weight day 7) is recorded as “potentiated”. Further, in the test with JMN cells (pemetrexed 50 mg/kg, days 1 and 4, tumor weight day 7), the “effect of YS110 on the in vivo tumor growth inhibitory effect of pemetrexed” value was “potentiated”.
